Measurements as given in ChEMBL document CHEMBL4043116, “KBE009: An antimalarial bestatin-like inhibitor of the Plasmodium falciparum M1 aminopeptidase discovered in an Ugi multicomponent reaction-derived peptidomimetic library” (Bioorg Med Chem, 2017).
Calls of active or inactive are those of the source. Unless noted, no cut-off for these calls is given here.

How the values were obtained:
Plasmodium falciparum [1] = test: Inhibition of recombinant Plasmodium falciparum M1 aminopeptidase assessed as residual activity at 20 uM using Ala-AMC as substrate pretreated for 30 mins followed by substrate addition by fluorescence assay relative to control
[2] = Inhibition of recombinant Plasmodium falciparum M1 aminopeptidase using Ala-AMC as substrate pretreated for 30 mins followed by substrate addition by fluorescence assay
Plasmodium falciparum [3] = test: Antimalarial activity against synchronized ring stage of […] Plasmodium falciparum 3D7 infected in human erythrocytes assessed as parasite growth at 25 uM after 72 hrs by YOYO-1 staining based flow cytometric analysis relative to control; type: functional
Plasmodium falciparum [4] = test: Antimalarial activity against synchronized ring stage of […] Plasmodium falciparum 3D7 infected in human erythrocytes after 48 hrs by Giemsa staining based microscopic analysis; type: functional, cell-based; conditions: for IC50: 3D7, 48 h
Plasmodium falciparum [5] = test: Antimalarial activity against synchronized ring stage of […] Plasmodium falciparum 3D7 infected in human erythrocytes assessed as parasite growth at 25 uM after 48 hrs by Giemsa staining based microscopic analysis; type: functional, cell-based
Erythrocyte = test: Hemolytic activity against human erythrocytes at 25 uM measured after 48 hrs; type: ADME, cell-based
Plasmodium falciparum [6] = test: Antimalarial activity against asynchronized chloroquine-resistant Plasmodium falciparum FcB1/Columbia assessed as reduction in [3H]-hypoxanthine incorporation by measuring parasite growth at 5 uM pretreated for 24 hrs followed by [3H]-hypoxanthine addition after 24 hrs by microbeta scintillation counting analysis relative to control; type: functional; parameters: scale not given: the % may be the effect or the level left
Plasmodium falciparum [7] = test: Antimalarial activity against asynchronized chloroquine-resistant Plasmodium falciparum FcB1/Columbia assessed as reduction in [3H]-hypoxanthine incorporation by measuring parasite growth at 50 uM pretreated for 24 hrs followed by [3H]-hypoxanthine addition after 24 hrs by microbeta scintillation counting analysis relative to control; type: functional; parameters: scale not given: the % may be the effect or the level left
[8] = Selectivity index, ratio of Ki for recombinant Plasmodium falciparum M1 aminopeptidase to Ki for porcine kidney cortex aminopeptidase N
Plasmodium falciparum [9] = test: Antimalarial activity against asynchronized chloroquine-resistant Plasmodium falciparum FcB1/Columbia assessed as reduction in [3H]-hypoxanthine incorporation pretreated for 24 hrs followed by [3H]-hypoxanthine addition after 24 hrs by microbeta scintillation counting analysis; type: functional
Aminopeptidase N = target: T1, Aminopeptidase N (Sus scrofa, UniProt P15145); test: Inhibition of porcine kidney cortex aminopeptidase N using Leu-p-nitroanilide as substrate pretreated for 30 mins followed by substrate addition […]
T1 sequence (P15145 whole entry): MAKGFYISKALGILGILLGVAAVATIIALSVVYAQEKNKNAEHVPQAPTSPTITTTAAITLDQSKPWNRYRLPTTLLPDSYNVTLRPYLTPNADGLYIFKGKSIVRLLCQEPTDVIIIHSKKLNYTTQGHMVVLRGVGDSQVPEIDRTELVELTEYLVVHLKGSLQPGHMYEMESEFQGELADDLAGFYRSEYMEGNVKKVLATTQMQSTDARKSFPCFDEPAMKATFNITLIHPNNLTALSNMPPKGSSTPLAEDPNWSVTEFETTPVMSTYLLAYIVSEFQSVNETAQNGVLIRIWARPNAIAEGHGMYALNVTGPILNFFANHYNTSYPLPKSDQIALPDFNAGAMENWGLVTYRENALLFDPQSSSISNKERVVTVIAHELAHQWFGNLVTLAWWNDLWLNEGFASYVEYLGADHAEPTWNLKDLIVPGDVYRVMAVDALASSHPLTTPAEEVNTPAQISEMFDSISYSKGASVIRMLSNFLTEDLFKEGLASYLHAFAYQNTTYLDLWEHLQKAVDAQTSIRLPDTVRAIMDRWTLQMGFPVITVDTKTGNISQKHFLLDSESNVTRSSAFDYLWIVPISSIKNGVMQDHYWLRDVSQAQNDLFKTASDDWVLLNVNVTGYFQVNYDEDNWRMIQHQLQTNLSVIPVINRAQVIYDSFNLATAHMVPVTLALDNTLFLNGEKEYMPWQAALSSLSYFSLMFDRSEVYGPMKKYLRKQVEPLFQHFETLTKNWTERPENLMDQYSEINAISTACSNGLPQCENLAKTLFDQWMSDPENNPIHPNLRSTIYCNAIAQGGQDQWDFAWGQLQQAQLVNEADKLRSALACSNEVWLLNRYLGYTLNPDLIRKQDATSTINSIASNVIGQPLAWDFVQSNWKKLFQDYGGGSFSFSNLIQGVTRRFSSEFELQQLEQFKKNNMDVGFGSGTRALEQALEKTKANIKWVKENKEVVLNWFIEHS

SMILES	Activity (Plasmodium falciparum [1]) [%]	Ki [2] [µM]	Activity (Plasmodium falciparum [3]) [%]	inhibition (Plasmodium falciparum [4])	Activity (Plasmodium falciparum [5])	Activity (Erythrocyte)	Activity (Plasmodium falciparum [6])	Activity (Plasmodium falciparum [7])	Ratio Ki [8]	IC50 (Plasmodium falciparum [9]) [µM]	IC50 (Plasmodium falciparum [4]) [µM]	Ki (Aminopeptidase N) [µM]
O=C(CN[C@@H](Cc1ccccc1)C(=O)O)NCc1ccccc1	23	0.9	38	Active	Active	Non-Toxic						
CC(C)C[C@H](NC(C(=O)NC1CCCCC1)c1ccccc1)C(=O)O (some centres not stated)	40		82		Active	Non-Toxic	85.5 - 93%	15.5 - 23%				
CC(C)C[C@H](NCC(=O)NC1CCCCC1)C(=O)O	96		60		Active	Non-Toxic	97 - 99%	69 - 90%				
CC(C)C[C@@H](C(=O)O)N(C(=O)[C@@H](N)Cc1ccccc1)C(C(=O)NCc1ccccc1)c1ccccc1 (some centres not stated)	83		66		Active	Non-Toxic	65 - 90%	39 - 55.5%				
CC[C@H](C)[C@H](NC(C(=O)NC1CCCCC1)c1ccccc1)C(=O)O (some centres not stated)	96		77		Active	Non-Toxic	84.5 - 92.5%	39.5 - 41.5%				
CC(C)C[C@H](N)C(=O)N(CC(=O)NCc1ccccc1)[C@H](C(=O)O)C(C)C	85		65		Active	Non-Toxic	76.5 - 79%	67 - 78%				
O=C(CN[C@@H](Cc1ccccc1)C(=O)O)NC1CCCCC1	48	6.1	53		Active	Non-Toxic	84.5 - 99%	21.5 - 56%	3.4	29	37	21
O=C(CN[C@@H](Cc1c[nH]c2ccccc12)C(=O)O)NC1CCCCC1	29	4.3	43		Active	Non-Toxic	83 - 92.5%	31 - 39.5%	5.6	37	25	24
COc1ccc(C(N[C@@H](CC(C)C)C(=O)O)C(=O)NC2CCCCC2)cc1OC (some centres not stated)	98		41		Active	Non-Toxic						
CC(C)C[C@@H](C(=O)O)N(C(=O)[C@@H](N)Cc1ccccc1)C(C(=O)NC(C)(C)C)c1ccco1 (some centres not stated)	42		96		Active	Non-Toxic	94.5 - 99%	81.5 - 95%				
O=C(NC1CCCCC1)C(c1ccccc1)N1CCC[C@H]1C(=O)O (some centres not stated)	100		90		Active	Non-Toxic						
CC(C)C[C@@H](C(=O)O)N(CC(=O)NC(C)(C)C)C(=O)[C@@H](N)Cc1ccccc1	97		45		Active	Non-Toxic	87.5 - 91.5%	48.1 - 79.5%				
O=C(NC1CCCCC1)C(N[C@@H](Cc1ccccc1)C(=O)O)c1ccccc1 (some centres not stated)	24	1.9	42		Active	Non-Toxic					26	
O=C(CN1CCC[C@H]1C(=O)O)NC1CCCCC1	98		82		Active	Non-Toxic						
CC(C)C[C@@H](C(=O)O)N(CC(=O)NCc1ccccc1)C(=O)[C@@H](N)Cc1ccccc1	91		89		Active	Non-Toxic	91 - 93.5%	79 - 100%				
CC(C)C[C@H](N)C(=O)N(CC(=O)NC(C)(C)C)[C@@H](Cc1ccccc1)C(=O)O	61		87		Active	Non-Toxic	92.5 - 99%	71 - 83.5%				
CC[C@H](C)[C@H](NCC(=O)NC1CCCCC1)C(=O)O	100		93		Active	Non-Toxic	79.5 - 86.5%	1.5 - 4.5%				
COc1ccc(C(C(=O)NC(C)(C)C)N(C(=O)[C@@H](N)Cc2ccccc2)[C@@H](CC(C)C)C(=O)O)cc1OC (some centres not stated)	48		95		Active	Non-Toxic	56 - 99%	42.5 - 99%				
CC(C)C[C@@H](C(=O)O)N(C(=O)[C@@H](N)Cc1ccccc1)C(C(=O)NCC(=O)O)c1ccccc1 (some centres not stated)	73		88		Active	Non-Toxic	97 - 99%	89 - 97.5%				
CC(C)C[C@H](NC(C(=O)NC1CCCCC1)c1cccnc1)C(=O)O (some centres not stated)	94		96		Active	Non-Toxic						
CC(C)C[C@@H](C(=O)O)N(C(=O)[C@@H](N)Cc1ccccc1)C(C(=O)NC(C)(C)C)c1cccnc1 (some centres not stated)	64		86		Active	Non-Toxic	16 - 99%	1 - 11.5%				
O=C(NC1CCCCC1)C(c1cccnc1)N1CCC[C@H]1C(=O)O (some centres not stated)	99		83		Active	Non-Toxic						
